In patent US9884067B2, “Androgen receptor down-regulating agents and uses thereof” (UNIVERSITY OF MARYLAND EASTERN SHORE, priority 2013, dated 2018):
Several values for one entry are separate records, joined by “and”; a condition that tells them apart may be missing. Identical values can stand only once. Like-named read-outs stand apart in the source and are kept apart here.

Tests used:
[1] = target: T1, AR-3 (also called AR-V7) (Homo sapiens, UniProt P10275); experiment: Down-regulation of truncated AR splice variant, western blot in CWR22rv1 cells; assay type: cell-based; conditions: CWR22rv1 prostate cancer cell line
T1 construct: endogenous in cells; host or cells: CWR22Rv1
T1 sequence (P10275 1-644 isoform P10275-3): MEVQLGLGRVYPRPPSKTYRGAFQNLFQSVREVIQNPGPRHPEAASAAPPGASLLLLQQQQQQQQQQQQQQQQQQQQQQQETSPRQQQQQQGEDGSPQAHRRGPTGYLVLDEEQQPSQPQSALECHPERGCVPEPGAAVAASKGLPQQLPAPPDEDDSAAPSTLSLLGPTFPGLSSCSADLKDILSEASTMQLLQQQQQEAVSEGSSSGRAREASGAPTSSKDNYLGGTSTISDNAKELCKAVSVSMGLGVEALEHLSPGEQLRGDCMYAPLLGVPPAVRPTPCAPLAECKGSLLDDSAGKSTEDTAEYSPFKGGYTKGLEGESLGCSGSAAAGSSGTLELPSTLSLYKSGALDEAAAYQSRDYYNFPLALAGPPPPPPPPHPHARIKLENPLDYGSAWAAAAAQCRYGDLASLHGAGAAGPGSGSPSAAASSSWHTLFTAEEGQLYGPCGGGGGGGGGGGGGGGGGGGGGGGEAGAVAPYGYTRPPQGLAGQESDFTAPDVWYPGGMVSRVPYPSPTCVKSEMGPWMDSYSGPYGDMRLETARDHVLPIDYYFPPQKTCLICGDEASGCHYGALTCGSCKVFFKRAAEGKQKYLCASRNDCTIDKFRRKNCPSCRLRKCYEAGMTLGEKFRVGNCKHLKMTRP
Method: (§1) Due to the potential implication of AR splice variants lacking the ligand-binding domain (truncated AR) in driving the progression of CRPC, the effects of the compounds on the down-regulation of AR-3 (also called AR-V7) were determined.
(§2) For the Western blot analyses, LNCaP or CWR22v1 prostate cancer cells were cultured. The cells were then treated with the indicated compounds and whole cell lysates were prepared using RIPA lysis buffer (Sigma Aldrich) and protease and phosphatase inhibitors (Sigma Aldrich). All of the antibodies were ordered from cell signaling technology. Protein content was determined using the Bradford Assay (Bio-Rad, Hercules, Calif., USA). Protein was subjected to SDS-PAGE and transferred onto nitrocellulosemembrane. Membranes were then incubated with secondary antibody (cell signaling technology) at room temperature for 1 hour. Bands were visualized by chemiluminescence (Millipore). Protein expression was normalized to β-actin and densitometry was carried out using Image J or ImageQuant 5.0 (Molecular Dynamics, Sunnyvale, Calif., USA).

[2] = test system: LNCaP cells; experiment: MTT colorimetric anti-proliferative assay; assay type: cell-based, human
Method: The cells were treated for 7 days with renewal of test compound and media on day 4. On the 7th day, medium was renewed and MTT (3-(4,5-dimethylthiazol-2-yl)-2,5-diphenyl-2H-tetrazolium bromide) (Sigma, St Louis, Mo., USA) solution (0.5 mg MTT per ml of media) was added to the medium such that the ratio of MTT: medium was 1:10. The cells were incubated with MTT for 2 hours. The medium was then aspirated and DMSO was added to solubilize the violet MTT-formazan product.

[3] = target: T2, human CYP17A1 (CYP171dH) (Homo sapiens, UniProt P05093); experiment: CYP17 inhibition studies; assay type: biochemical
T2 sequence (P05093 with tags, fused parts or gaps limits assumed): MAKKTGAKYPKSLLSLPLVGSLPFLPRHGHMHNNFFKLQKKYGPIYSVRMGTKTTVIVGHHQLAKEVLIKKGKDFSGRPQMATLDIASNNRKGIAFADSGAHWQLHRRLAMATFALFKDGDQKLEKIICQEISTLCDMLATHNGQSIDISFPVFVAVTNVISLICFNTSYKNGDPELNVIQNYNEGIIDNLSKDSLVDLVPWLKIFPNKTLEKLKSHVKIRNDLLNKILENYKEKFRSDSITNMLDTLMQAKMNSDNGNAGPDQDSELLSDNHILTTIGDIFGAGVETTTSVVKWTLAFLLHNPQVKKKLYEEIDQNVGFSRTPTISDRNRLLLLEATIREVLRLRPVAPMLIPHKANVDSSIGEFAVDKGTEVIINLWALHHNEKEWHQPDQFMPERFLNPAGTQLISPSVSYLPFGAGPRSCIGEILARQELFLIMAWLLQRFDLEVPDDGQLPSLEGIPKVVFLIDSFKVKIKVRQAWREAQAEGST
Method: Some compounds were evaluated for their ability to inhibit CYP17 enzyme. A truncated version of human CYP17A1 (CYP171dH) was expressed in E. coli and then purified to homogeneity.

[4] = test system: full-length AR; experiment: Down-regulation of full-length AR, western blot in CWR22rv1 cells; assay type: cell-based, human; conditions: CWR22rv1 prostate cancer cell line
Method: as §1, §2

[5] = Solubility in ethanol or DMSO; assay type: physicochemical
[6] = target: T3, AR (Homo sapiens, UniProt P10275, T878A); experiment: AR down-regulation, western blot analysis in LNCaP cells; assay type: cell-based; conditions: 24 h, western blot
T3 construct: host or cells: LNCaP
T3 sequence (P10275 1-920 T878A): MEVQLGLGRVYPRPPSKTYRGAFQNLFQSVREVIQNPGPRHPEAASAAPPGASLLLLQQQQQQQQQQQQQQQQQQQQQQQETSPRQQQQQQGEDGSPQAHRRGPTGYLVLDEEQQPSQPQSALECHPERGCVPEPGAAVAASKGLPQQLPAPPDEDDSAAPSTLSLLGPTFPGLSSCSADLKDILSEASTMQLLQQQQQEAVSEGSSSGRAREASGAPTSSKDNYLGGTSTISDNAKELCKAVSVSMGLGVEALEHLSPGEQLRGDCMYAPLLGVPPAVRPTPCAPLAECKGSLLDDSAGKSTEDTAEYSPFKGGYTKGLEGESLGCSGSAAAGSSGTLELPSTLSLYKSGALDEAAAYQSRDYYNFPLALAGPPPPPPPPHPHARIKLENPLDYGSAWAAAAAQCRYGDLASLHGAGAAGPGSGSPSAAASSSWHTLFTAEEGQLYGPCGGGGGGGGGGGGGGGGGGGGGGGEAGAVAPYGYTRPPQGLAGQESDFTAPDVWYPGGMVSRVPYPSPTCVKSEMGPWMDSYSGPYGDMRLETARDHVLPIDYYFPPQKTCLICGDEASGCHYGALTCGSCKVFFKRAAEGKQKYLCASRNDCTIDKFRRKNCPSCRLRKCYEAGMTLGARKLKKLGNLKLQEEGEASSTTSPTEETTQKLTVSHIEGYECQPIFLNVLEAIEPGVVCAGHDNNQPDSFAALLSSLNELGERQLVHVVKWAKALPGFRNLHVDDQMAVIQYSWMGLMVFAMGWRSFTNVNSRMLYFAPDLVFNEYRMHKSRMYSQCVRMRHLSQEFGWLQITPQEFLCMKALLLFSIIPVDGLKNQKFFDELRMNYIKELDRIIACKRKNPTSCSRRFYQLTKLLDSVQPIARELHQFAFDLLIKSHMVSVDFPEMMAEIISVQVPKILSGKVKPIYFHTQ
Method: For the Western blot analyses, LNCaP or CWR22v1 prostate cancer cells were cultured. The cells were then treated with the indicated compounds and whole cell lysates were prepared using RIPA lysis buffer (Sigma Aldrich) and protease and phosphatase inhibitors (Sigma Aldrich). All of the antibodies were ordered from cell signaling technology. Protein content was determined using the Bradford Assay (Bio-Rad, Hercules, Calif., USA). Protein was subjected to SDS-PAGE and transferred onto nitrocellulosemembrane. Membranes were then incubated with secondary antibody (cell signaling technology) at room temperature for 1 hour. Bands were visualized by chemiluminescence (Millipore). Protein expression was normalized to β-actin and densitometry was carried out using Image J or ImageQuant 5.0 (Molecular Dynamics, Sunnyvale, Calif., USA). CWR22Rv1 cells were used for endogenous levels of splice variant AR-3. Protein levels were analyzed with respective antibodies; full length AR and β-actin antibodies were purchased from cell signaling, antibody specific for splice variant AR-3 was obtained from Dr. Yun Qiu, University of Maryland, School of Medicine, Baltimore.

[7] = target: T4, AR in LNCaP cells (Homo sapiens, UniProt P10275, T878A); experiment: Whole cell competitive binding assay with [3H]R1881; conditions: 30 µM
T4 sequence (P10275 1-920 T878A): T3 sequence (P10275 1-920 T878A)
Method: The androgen receptor competitive binding assays were performed with the synthetic androgen methyltrienolone [^3H]R1881. […] To determine the kinetics of [^3H]R1881 binding to the LNCaP AR cells were plated (2-3×10^5 cells/well) in 24 well multiwell dishes in steroid-free medium and allowed to attach. […] Following a 2 hour incubation period at 37° C., cells were washed twice with ice-cold DPBS and solubilized in DPBS containing 0.5% SDS and 20% glycerol. Extracts were removed and cell associated radioactivity counted in a scintillation counter. The data was analyzed, including Kd and Bmax determination, by nonlinear regression using Graphpad Prism software (GraphPad Software, Inc, San Diego, Calif.). When the concentration of [^3H]R1881 required to almost saturate AR in both cell lines was established (5.0 nM), the ability of the test compounds (1 nM-10 μM) to displace [^3H]R1881 (5.0 nM) from the receptors was determined as described above. The IC50 of each compound was determined by nonlinear regression with Graphpad Prism software (GraphPad Software, Inc, San Diego, Calif.).

[8] = Homo sapiens, LNCaP, 168 h, LNCaP, MTT, 7 days, Table 4, read-out: GI50 of C-3 modified compounds
[9] = each in duplicate, from dose-response curves
[10] = Homo sapiens, LNCaP, 168 h, LNCaP, MTT, 7 days, Table 2, read-out: GI50 of C-17 modified compounds

C[C@]12CCC(=NO)C=C1CC[C@@H]1[C@@H]2CC[C@]2(C)C(n3cnc4ccccc43)=CC[C@@H]12 (mixture of isomers) [Compound 36, 3-((EZ)-Hydroximino)-17-(1H-Benzimidazol-1-yl)-androsta-4,16-diene]
down-regulation of truncated AR (AR-3) [1]: significant down-regulation | GI50 [2, 8]: 1.91 µM | IC50 [3, 9]: 93.7 to 258 µM and 258 µM | down-regulation of full-length AR [4]: significant down-regulation

C[C@]12CCC(=NOc3ccccc3)C=C1CC[C@@H]1[C@@H]2CC[C@]2(C)C(n3cnc4ccccc43)=CC[C@@H]12 (mixture of isomers) [Compound 37, 3-((EZ)—O-Phenyloxime)-17-(1H-Benzimidazol-1-yl)-androsta-4,16-diene]
solubility in ethanol or DMSO [5]: limited solubility in ethanol or DMSO

C[C@]12CC[C@H](O)CC1=CC[C@@H]1[C@@H]2CC[C@]2(C)C(c3cccnc3)=CC[C@@H]12 [Abiraterone alcohol (3b), abiraterone alcohol, reference compound]
GI50 ([2]; LNCaP, MTT, 7 days, Table 2, read-out: GI50 of C-17 modified compounds): 1.97 µM | IC50 [3, 9]: 0.206 µM

C[C@]12CC[C@H](O)CC1=CC[C@@H]1[C@@H]2CC[C@]2(C)C(n3cnc4ccccc43)=CC[C@@H]12 [Compound 5, 3β-Hydroxy-17-(1H-benzimidazol-1-yl)-androsta-5,16-diene, reference compound]
GI50 [2, 10]: 3.35 µM | IC50 [3, 9]: 0.752 µM | down-regulation of full-length AR [4]: significant down-regulation

C[C@]12CC[C@H](O)CC1=CC[C@@H]1[C@@H]2CC[C@]2(C)C(n3ccc4ccccc43)=CC[C@@H]12 [Compound 16, 3β-Hydroxy-17-(1H-indol-1-yl)-androsta-5,16-diene]
GI50 [2, 10]: > 100 µM | IC50 [3, 9]: 93.7 to 258 µM and 130 µM | AR down-regulation (ARD) activity, in words [6]: up-regulation of AR | melting point: 142 to 145 °C

COc1ccc(NCC2=C(n3cnc4ccccc43)[C@@]3(C)CC[C@H]4[C@@H](CC=C5C[C@@H](O)CC[C@@]54C)[C@@H]3C2)cc1OC [Compound 31, 3β-Hydroxy-17-(1H-benzimidazol-1-yl)-16-(((3,4-dimethoxyphenyl)amino)methyl)-androsta-5,16-diene]
down-regulation of truncated AR (AR-3) [1]: significant down-regulation | GI50 ([2]; Homo sapiens, LNCaP, 168 h, LNCaP cells, MTT, 7 days, Table 3, read-out: GI50 of C-16 modified compounds): > 100 µM | AR down-regulation (ARD) activity, in words [6]: significant loss of ARD | down-regulation of full-length AR [4]: significant down-regulation

C[C@]12CC[C@H](OC(=O)c3ccccn3)CC1=CC[C@@H]1[C@@H]2CC[C@]2(C)C(n3cnc4ccccc43)=CC[C@@H]12 [Compound 41, 3β-(Pyridine-2-carboxylate)-17-(1H-benzimidazol-1-yl)-androsta-5,16-diene]
solubility in ethanol or DMSO [5]: limited solubilities in ethanol or DMSO

C[C@]12CC[C@H](OC(=O)c3cccnc3)CC1=CC[C@@H]1[C@@H]2CC[C@]2(C)C(n3cnc4ccccc43)=CC[C@@H]12 [Compound 42, 3β-(Pyridine-3-carboxylate)-17-(1H-benzimidazol-1-yl)-androsta-5,16-diene]
solubility in ethanol or DMSO [5]: limited solubilities in ethanol or DMSO

C[C@]12CC[C@H](OC(=O)c3ccncc3)CC1=CC[C@@H]1[C@@H]2CC[C@]2(C)C(n3cnc4ccccc43)=CC[C@@H]12 [Compound 43, 3β-(Pyridine-4-carboxylate)-17-(1H-benzimidazol-1-yl)-androsta-5,16-diene]
GI50 ([2]; read-out: GI50 of C-3 modified compounds): 2.57 µM | inhibition of [3H]R1881 binding / displacement [7]: ~53%

Cc1nccn1C(=O)O[C@H]1CC[C@@]2(C)C(=CC[C@@H]3[C@@H]2CC[C@]2(C)C(n4cnc5ccccc54)=CC[C@@H]32)C1 [Compound 48, 3β-(2-Methyl-1H-imidazole-1-carboxylate)-17-(1H-benzimidazol-1-yl)-androsta-5,16-diene]
GI50 [2, 8]: 5.34 µM | fold decrease in anti-proliferative activity ([2]; relative to 47): 6 fold | IC50 [3, 9]: 93.7 to 258 µM and 93.7 µM | melting point: 186 to 187 °C

C[C@]12CC[C@H](O)CC1=CC[C@@H]1[C@@H]2CC[C@]2(C)C(n3ccnc3)=CC[C@@H]12 [VN/85-1, 3β-hydroxy-17-(1H-imidazole-1-yl)androsta-5,16-diene, reference compound]
IC50 [3]: 0.125 µM
